In this test the target is Src kinase (Homo sapiens, UniProt P12931). Kind of test: ADP-Glo kinase assay, […] Src, […] ATP, peptide substrate.

pIC50: −log10 of the molar value.

Src kinase, sequence (P12931 2-536): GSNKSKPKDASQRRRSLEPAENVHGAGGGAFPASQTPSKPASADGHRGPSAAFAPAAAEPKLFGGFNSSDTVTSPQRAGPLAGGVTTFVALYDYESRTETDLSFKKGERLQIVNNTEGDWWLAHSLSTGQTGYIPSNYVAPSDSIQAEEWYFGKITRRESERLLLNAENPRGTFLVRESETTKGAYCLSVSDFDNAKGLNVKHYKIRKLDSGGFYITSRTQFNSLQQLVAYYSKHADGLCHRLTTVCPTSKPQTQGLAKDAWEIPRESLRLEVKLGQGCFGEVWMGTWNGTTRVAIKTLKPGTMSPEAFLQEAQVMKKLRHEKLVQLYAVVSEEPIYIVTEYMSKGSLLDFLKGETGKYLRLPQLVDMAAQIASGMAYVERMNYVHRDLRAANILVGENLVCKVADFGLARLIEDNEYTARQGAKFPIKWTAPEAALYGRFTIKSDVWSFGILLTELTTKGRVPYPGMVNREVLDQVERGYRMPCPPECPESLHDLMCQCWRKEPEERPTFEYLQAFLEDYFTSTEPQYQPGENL

Turning to `Cc1nc(Nc2ncc(C(=O)Nc3cc(NC(=O)c4cccc(C(F)(F)F)c4)ccc3C)s2)cc(N2CCN(CCO)CC2)n1` [UM-164], the pIC50 was 6.49.

Source of the values: publication PMC13397736, “LEP-AD: language embedding of proteins and attention to drugs predicts drug-target interactions” (Journal of Cheminformatics, 2026).
